Measurements published in the NIST ThermoML archive (doi:10.1021/acs.jced.9b00607).
Numbers after ± are expanded uncertainties.

Experiment: wn = mass fraction of the nth substance listed
Settings: 102 kPa, Liquid; for viscosity: Falling or rolling sphere viscometry; for mass density: Vibrating tube method

CN(CCO)CCO [N-methyldiethanolamine] + OCCO
Settings	mass density [kg/m3]	viscosity [mPa·s]
283.15 K, w1 = 0.3	1101.8 ± 0.3	64.36 ± 4.2
283.15 K, w1 = 0.4	1095.1 ± 0.3	80.69 ± 4.3
283.15 K, w1 = 0.5	1088.1 ± 0.4	99.66 ± 4.7
283.15 K, w1 = 0.7	1073.3 ± 0.5	–
283.15 K, w1 = 0.8	1065.4 ± 0.7	164.27 ± 7.6
283.15 K, w1 = 0.9	1057.2 ± 0.8	181.33 ± 8.6
283.15 K, w1 = 1	1048 ± 0.3	198.15 ± 9.4
298.15 K, w1 = 0.3	1090.9 ± 0.3	30.43 ± 1.1
298.15 K, w1 = 0.4	1084.3 ± 0.3	36.57 ± 1.1
298.15 K, w1 = 0.5	1077.2 ± 0.4	43.55 ± 1.2
298.15 K, w1 = 0.7	1062.1 ± 0.5	58.07 ± 2.7
298.15 K, w1 = 0.8	1054 ± 0.7	66.59 ± 2.7
298.15 K, w1 = 0.9	1045.6 ± 0.8	69.21 ± 2.8
298.15 K, w1 = 1	1036.8 ± 0.3	74.87 ± 1.5
313.15 K, w1 = 0.3	1079.9 ± 0.2	15.89 ± 1.1
313.15 K, w1 = 0.4	1073.2 ± 0.3	18.52 ± 1.1
313.15 K, w1 = 0.5	1066 ± 0.3	21.58 ± 1.1
313.15 K, w1 = 0.7	1050.8 ± 0.5	27.72 ± 1.1
313.15 K, w1 = 0.8	1042.6 ± 0.7	30.49 ± 1.1
313.15 K, w1 = 0.9	1034.1 ± 0.8	33.05 ± 1.1
313.15 K, w1 = 1	1025.3 ± 0.3	35.05 ± 1.1
323.15 K, w1 = 0.3	1072.5 ± 0.2	10.8 ± 0.35
323.15 K, w1 = 0.4	1065.7 ± 0.3	12.43 ± 0.36
323.15 K, w1 = 0.5	1058.5 ± 0.3	14.2 ± 0.36
323.15 K, w1 = 0.7	1043.1 ± 0.5	17.75 ± 0.39
323.15 K, w1 = 0.8	1034.9 ± 0.7	19.48 ± 0.4
323.15 K, w1 = 0.9	1026.4 ± 0.8	20.91 ± 0.4
323.15 K, w1 = 1	1017.7 ± 0.2	21.96 ± 0.43
333.15 K, w1 = 0.3	1065.1 ± 0.2	7.82 ± 0.47
333.15 K, w1 = 0.4	1058.1 ± 0.3	8.82 ± 0.48
333.15 K, w1 = 0.5	1050.9 ± 0.3	9.94 ± 0.48
333.15 K, w1 = 0.7	1035.4 ± 0.5	12.17 ± 0.49
333.15 K, w1 = 0.8	1027.2 ± 0.7	13.26 ± 0.49
333.15 K, w1 = 0.9	1018.7 ± 0.8	14.12 ± 0.49
333.15 K, w1 = 1	1010 ± 0.2	14.83 ± 0.49
343.15 K, w1 = 0.3	1057.4 ± 0.2	5.75 ± 0.46
343.15 K, w1 = 0.4	1050.5 ± 0.3	6.45 ± 0.46
343.15 K, w1 = 0.5	1043.1 ± 0.3	7.17 ± 0.46
343.15 K, w1 = 0.7	1027.5 ± 0.5	8.61 ± 0.47
343.15 K, w1 = 0.8	1019.3 ± 0.7	9.26 ± 0.47
343.15 K, w1 = 0.9	1010.9 ± 0.8	9.81 ± 0.47
343.15 K, w1 = 1	1002.2 ± 0.2	10.29 ± 0.54
353.15 K, w1 = 0.3	1049.7 ± 0.2	4.44 ± 0.31
353.15 K, w1 = 0.4	1042.7 ± 0.3	4.89 ± 0.31
353.15 K, w1 = 0.5	1035.3 ± 0.3	5.36 ± 0.31
353.15 K, w1 = 0.7	1019.7 ± 0.5	6.32 ± 0.32
353.15 K, w1 = 0.8	1011.5 ± 0.7	6.76 ± 0.32
353.15 K, w1 = 0.9	1003 ± 0.8	7.13 ± 0.32
353.15 K, w1 = 1	994.5 ± 0.2	7.4 ± 0.32
